# Results taken from ChEMBL document CHEMBL2434896, “Carbonic anhydrase inhibitors. Synthesis of heterocyclic 4-substituted pyridine-3-sulfonamide derivatives and their inhibition of the human cytosolic isozymes I and II and transmembrane tumor-associated isozymes IX and XII” (Eur J Med Chem, 2013).
# pKi: −log10 of the molar value. Calls of active or inactive are those of the source. No cut-off for these calls is given here.
# Key:
# [1] = tested on: COLO 205; assay: Growth inhibition of human COLO205 cells at 10 uM after 48 hrs by sulforhodamine B assay; assay type: functional
# [2] = tested on: DU-145; assay: Growth inhibition of human DU145 cells at 10 uM after 48 hrs by sulforhodamine B assay; assay type: functional
# [3] = tested on: HOP-92; assay: Growth inhibition of human HOP92 cells at 10 uM after 48 hrs by sulforhodamine B assay; assay type: functional
# [4] = tested on: HOP-62; assay: Growth inhibition of human HOP62 cells at 10 uM after 48 hrs by sulforhodamine B assay; assay type: functional
# [5] = tested on: SF-268; assay: Growth inhibition of human SF268 cells at 10 uM after 48 hrs by sulforhodamine B assay; assay type: functional; settings: SF-268, 48 h, read-out: GI
# [6] = tested on: A549; assay: Growth inhibition of human A549/ATCC cells at 10 uM after 48 hrs by sulforhodamine B assay; assay type: functional
# [7] = tested on: SNB-19; assay: Growth inhibition of human SNB19 cells at 10 uM after 48 hrs by sulforhodamine B assay; assay type: functional; settings: SNB-19, 48 h, read-out: GI
# [8] = tested on: NCI-H322M; assay: Growth inhibition of human NCI-H322M cells at 10 uM after 48 hrs by sulforhodamine B assay; assay type: functional
# [9] = tested on: HCT-15; assay: Growth inhibition of human HCT15 cells at 10 uM after 48 hrs by sulforhodamine B assay; assay type: functional
# [10] = tested on: A498; assay: Growth inhibition of human A498 cells at 10 uM after 48 hrs by sulforhodamine B assay; assay type: functional
# [11] = tested on: NCI-H226; assay: Growth inhibition of human NCI-H226 cells at 10 uM after 48 hrs by sulforhodamine B assay; assay type: functional
# [12] = tested on: RXF 393; assay: Growth inhibition of human RXF393 cells at 10 uM after 48 hrs by sulforhodamine B assay; assay type: functional
# [13] = tested on: HL-60(TB); assay: Growth inhibition of human HL-60(TB) cells at 10 uM after 48 hrs by sulforhodamine B assay; assay type: functional; settings: HL-60, 48 h, read-out: GI
# [14] = tested on: IGROV-1; assay: Growth inhibition of human IGROV1 cells at 10 uM after 48 hrs by sulforhodamine B assay; assay type: functional
# [15] = tested on: MDA-MB-231; assay: Growth inhibition of human MDA-MB-231 cells at 10 uM after 48 hrs by sulforhodamine B assay; assay type: functional
# [16] = tested on: KM12; assay: Growth inhibition of human KM12 cells at 10 uM after 48 hrs by sulforhodamine B assay; assay type: functional
# [17] = tested on: SK-MEL-2; assay: Growth inhibition of human SK-MEL-2 cells at 10 uM after 48 hrs by sulforhodamine B assay; assay type: functional
# [18] = tested on: SN12C; assay: Growth inhibition of human SN12C cells at 10 uM after 48 hrs by sulforhodamine B assay; assay type: functional
# [19] = tested on: UO-31; assay: Growth inhibition of human UO31 cells at 10 uM after 48 hrs by sulforhodamine B assay; assay type: functional; settings: UO-31, 48 h, read-out: GI
# [20] = tested on: HCC 2998; assay: Growth inhibition of human HCC2998 cells at 10 uM after 48 hrs by sulforhodamine B assay; assay type: functional
# [21] = tested on: TK-10; assay: Growth inhibition of human TK10 cells at 10 uM after 48 hrs by sulforhodamine B assay; assay type: functional
# [22] = tested on: OVCAR-5; assay: Growth inhibition of human OVCAR5 cells at 10 uM after 48 hrs by sulforhodamine B assay; assay type: functional
# [23] = tested on: Malme-3M; assay: Growth inhibition of human MALME-3M cells at 10 uM after 48 hrs by sulforhodamine B assay; assay type: functional; settings: read-out: GI
# [24] = tested on: MCF7; assay: Growth inhibition of human MCF7 cells at 10 uM after 48 hrs by sulforhodamine B assay; assay type: functional
# [25] = tested on: M14; assay: Growth inhibition of human M14 cells at 10 uM after 48 hrs by sulforhodamine B assay; assay type: functional
# [26] = tested on: 786-0; assay: Growth inhibition of human 786-0 cells at 10 uM after 48 hrs by sulforhodamine B assay; assay type: functional; settings: 786-0, 48 h, read-out: GI
# [27] = tested on: K562; assay: Growth inhibition of human K562 cells at 10 uM after 48 hrs by sulforhodamine B assay; assay type: functional
# [28] = tested on: HCT-116; assay: Growth inhibition of human HCT116 cells at 10 uM after 48 hrs by sulforhodamine B assay; assay type: functional
# [29] = tested on: CCRF-CEM; assay: Growth inhibition of human CCRF-CEM cells at 10 uM after 48 hrs by sulforhodamine B assay; assay type: functional; settings: read-out: GI
# [30] = tested on: SK-MEL-28; assay: Growth inhibition of human SK-MEL-28 cells at 10 uM after 48 hrs by sulforhodamine B assay; assay type: functional, cell-based
# [31] = tested on: UACC-257; assay: Growth inhibition of human UACC257 cells at 10 uM after 48 hrs by sulforhodamine B assay; assay type: functional
# [32] = tested on: BT-549; assay: Growth inhibition of human BT549 cells at 10 uM after 48 hrs by sulforhodamine B assay; assay type: functional; settings: BT-549, 48 h, read-out: GI
# [33] = tested on: SF-539; assay: Growth inhibition of human SF539 cells at 10 uM after 48 hrs by sulforhodamine B assay; assay type: functional
# [34] = tested on: HT-29; assay: Growth inhibition of human HT-29 cells at 10 uM after 48 hrs by sulforhodamine B assay; assay type: functional
# [35] = tested on: OVCAR-3; assay: Growth inhibition of human OVCAR3 cells at 10 uM after 48 hrs by sulforhodamine B assay; assay type: functional
# [36] = tested on: UACC-62; assay: Growth inhibition of human UACC62 cells at 10 uM after 48 hrs by sulforhodamine B assay; assay type: functional
# [37] = tested on: MDA-MB-468; assay: Growth inhibition of human MDA-MB-468 cells at 10 uM after 48 hrs by sulforhodamine B assay; assay type: functional
# [38] = tested on: NCI/ADR-RES; assay: Growth inhibition of human NCI-ADR-RES cells at 10 uM after 48 hrs by sulforhodamine B assay; assay type: functional
# [39] = target: Carbonic anhydrase 9 (Homo sapiens, UniProt Q16790); assay: Inhibition of human carbonic anhydrase 9 after 15 mins by stopped flow CO2 hydration assay
# [40] = tested on: OVCAR-8; assay: Growth inhibition of human OVCAR8 cells at 10 uM after 48 hrs by sulforhodamine B assay; assay type: functional
# [41] = tested on: T47D; assay: Growth inhibition of human T47D cells at 10 uM after 48 hrs by sulforhodamine B assay; assay type: functional
# [42] = tested on: LOX IMVI; assay: Growth inhibition of human LOXIMVI cells at 10 uM after 48 hrs by sulforhodamine B assay; assay type: functional; settings: read-out: GI
# [43] = tested on: SR; assay: Growth inhibition of human SR cells at 10 uM after 48 hrs by sulforhodamine B assay; assay type: functional; settings: read-out: GI
# [44] = tested on: CAKI-1; assay: Growth inhibition of human CAKI-1 cells at 10 uM after 48 hrs by sulforhodamine B assay; assay type: functional
# [45] = tested on: Hs-578T; assay: Growth inhibition of human Hs 578T cells at 10 uM after 48 hrs by sulforhodamine B assay; assay type: functional
# [46] = tested on: MOLT-4; assay: Growth inhibition of human MOLT4 cells at 10 uM after 48 hrs by sulforhodamine B assay; assay type: functional; settings: MOLT-4, 48 h, read-out: GI
structure (smiles),measurement,setting,value
NS(=O)(=O)c1cnccc1N1CCN(c2ncccn2)CC1,growth inhibition (GI),[1],inactive
same,growth inhibition (GI),[2],inactive
same,growth inhibition (GI),[3],inactive
same,growth inhibition (GI),[4],inactive
same,inhibition of growth at 10 µM,[5],5%
same,growth inhibition (GI),[6],inactive
same,inhibition of growth at 10 µM,[7],1%
same,growth inhibition (GI),[8],inactive
same,growth inhibition (GI),[9],inactive
same,growth inhibition (GI),[10],inactive
same,growth inhibition (GI),[11],inactive
same,growth inhibition (GI),[12],inactive
same,inhibition of growth at 10 µM,[13],9%
same,growth inhibition (GI),[14],inactive
same,growth inhibition (GI),[15],inactive
same,growth inhibition (GI),[16],inactive
same,growth inhibition (GI),[17],inactive
same,growth inhibition (GI),[18],inactive
same,inhibition of growth at 10 µM,[19],15%
same,growth inhibition (GI),[20],inactive
same,growth inhibition (GI),[21],inactive
same,growth inhibition (GI),[22],inactive
same,inhibition of growth at 10 µM,[23],6%
same,growth inhibition (GI),[24],inactive
same,growth inhibition (GI),[25],inactive
same,inhibition of growth at 10 µM,[26],1%
same,growth inhibition (GI),[27],inactive
same,growth inhibition (GI),[28],inactive
same,inhibition of growth at 10 µM,[29],10%
same,growth inhibition (GI),[30],inactive
same,growth inhibition (GI),[31],inactive
same,inhibition of growth at 10 µM,[32],7%
same,growth inhibition (GI),[33],inactive
same,growth inhibition (GI),[34],inactive
same,growth inhibition (GI),[35],inactive
same,growth inhibition (GI),[36],inactive
same,growth inhibition (GI),[37],inactive
same,growth inhibition (GI),[38],inactive
same,pKi,[39],7.11
same,growth inhibition (GI),[40],inactive
same,growth inhibition (GI),[41],inactive
same,inhibition of growth at 10 µM,[42],4%
same,inhibition of growth at 10 µM,[43],17%
same,growth inhibition (GI),[44],inactive
same,growth inhibition (GI),[45],inactive
same,inhibition of growth at 10 µM,[46],6%
